PMC8151276, “An Integrated Approach toward NanoBRET Tracers for Analysis of GPCR Ligand Engagement” (Molecules, 2021)

Molecular target: T1, CCR10 (Homo sapiens, UniProt P46092)
T1 construct: purchased Promega (in-house HiBiT-GPCR construct library, NanoBRET)
T1 sequence (P46092 1-362): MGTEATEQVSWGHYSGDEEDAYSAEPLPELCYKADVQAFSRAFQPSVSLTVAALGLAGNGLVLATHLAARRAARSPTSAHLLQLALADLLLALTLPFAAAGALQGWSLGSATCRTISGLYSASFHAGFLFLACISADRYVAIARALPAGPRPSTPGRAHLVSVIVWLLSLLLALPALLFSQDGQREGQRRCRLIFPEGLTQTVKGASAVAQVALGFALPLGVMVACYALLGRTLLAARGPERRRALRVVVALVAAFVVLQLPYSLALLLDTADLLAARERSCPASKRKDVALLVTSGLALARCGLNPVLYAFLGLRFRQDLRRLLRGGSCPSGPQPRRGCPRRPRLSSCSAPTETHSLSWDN
Assay: NanoBRET screen HiBiT-CCR10 in HEK293
Type: binding
Procedure: Each tracer candidate was screened across the entire library of HiBiT-GPCR constructs using NanoBRET as the detection modality. As depicted in Figure 4A, the specificity of interactions was evaluated through decrease in BRET due to competitive displacement of a bound tracer by excess parental compound. Each tracer was analyzed for binding to each HiBiT-GPCR fusion in the absence and in the presence of competing parental compound. Briefly, HEK293 cells were transfected with HiBiT-GPCR constructs diluted into promoterless DNA to reduce expression and maximize translocation to the cell surface. Each tracer candidate was then screened at concentrations of 1 μM and 0.1 μM across cells expressing these fusions. Cells were treated for 1.5 h with tracer either alone or in the presence of 20 μM competing parental compound (i.e., control). BRET was measured upon addition of purified LgBiT and subsequent complementation with HiBiT genetically fused to a GPCR. The specificity of interactions was assessed through a decrease in BRET signal due to competitive displacement of the bound tracer. To further gauge the robustness of these interactions, the fold response over the control (i.e., BRETtracer/BRETcontrol) was calculated. We chose a 1.5-fold response, which translates to ≥7-fold signal over noise as the minimal threshold required to score an interaction as positive.
HiBiT-GPCR DNA constructs were diluted in 10 mM Tris pH 8 to a final concentration of 0.01 μg/μL, arrayed in 96-well plates and stored at −20 °C. For transfection, HEK293 cells were suspended in Opti-MEM (without phenol red) supplemented with 2% fetal bovine serum (Seradigm) and 100 units/mL penicillin–streptomycin (Gibco) at a final concentration of 220,000 cells/mL and dispensed into white 96-well plates at 90 μL/well. Subsequent transfections and screens were carried using an Agilent Bravo Automated Liquid Handling Platform. First, the 96-well HiBiT DNA arrays were diluted 25-fold in Opti-MEM (without serum or phenol red) to a final concentration of 0.0004 μg/μL and 20 μL of the diluted DNAs were transferred into new 96-well plates. Next, promoterless carrier DNA (1 μg/μL) was diluted 25-fold (0.04 μg/μL) and then dispensed into the diluted arrays at 20 μL/well. Following brief mixing, Viafect transfection reagent (Promega) diluted 16-fold into Opti-MEM was dispensed into the plates at 40 μL/well. After mixing by pipetting, plates were incubated for 10 min on the pipetting station deck. The DNA-transfection reagent complexes were then added to plates containing cells. To facilitate the screen, 10 μL of DNA-transfection reagent complexes were added in duplicates to the top 4 and bottom 4 rows, resulting in two identical 48-well arrays per plate. Plates with transfected cells were incubated for 18–20 h at 37 °C/5% CO2. A screen of each tracer across the entire library using two different concentrations requires duplicate plates of transfected cells. Depending on the number of tracers being screened, transfections can be scaled up using the same ratios. The next day, for each tracer, four 20× screening solutions in tracer dilution buffer (Promega) were prepared: two duplicates at final concentration of 20 μM and two duplicates at a final concentration of 2 μM. […] The four resulting solutions were diluted 4-fold in Opti-MEM without serum or phenol red to generate 5× solutions (5 µM and 0.5 µM tracer +/− 100 μM competing compound). To screen the library, a BioTek MultiFlo FX liquid dispenser was used to dispense 22.5 µL of tracer solution to the top 4 rows and 22.5 µL tracer + competing compound solution to the 4 bottom rows. Plates were briefly mixed on an orbital shaker and incubated for 1.5 h at room temperature. […] Plates were briefly mixed on an orbital shaker and incubated for 15 min to allow complementation.

SMILES | NanoBRET Fold Response (CCR10, tracer 1μM) | NanoBRET Fold Response (CCR10, tracer 0.1μM) | further results
Cc1nc2n(c(=O)c1CCN1CCC(c3noc4cc(F)ccc34)CC1)CCCC2OC(=O)NCCOCCOCCOCCOCCNC(=O)CCc1ccc2n1[B-](F)(F)[N+]1=C(c3ccc[nH]3)C=CC1=C2 (stereo not shown) [Risperidone-2-NB590] | 0.95 |  | 
CCOC(=O)c1cc(C#N)c(N2CCC(C(=O)NS(=O)(=O)Cc3ccccc3/C=C/C(=O)NCCNC(=O)CCc3ccc4n3[B-](F)(F)[N+]3=C(c5ccc[nH]5)C=CC3=C4)CC2)nc1C [AZD1283-1-NB590] |  |  | NanoBRET Fold Response (CCR10, 0.1μM): 1.00; NanoBRET Fold Response (CCR10, 1μM): 1.07
Cc1cc2c(s1)Nc1ccccc1N=C2N1CCN(CCCNC(=O)CCOCCOCCOCCOCCNC(=O)CCc2ccc3n2[B-](F)(F)[N+]2=C(c4ccc[nH]4)C=CC2=C3)CC1 [Olanzapine-a-2-NB590] | 0.95 | 1.01 | 
COc1ccccc1N1CCN(CCCCN2C(=O)c3ccc(CNC(=O)CCOCCNC(=O)c4ccc(CNC(=O)CCc5ccc6n5[B-](F)(F)[N+]5=C(c7ccc[nH]7)C=CC5=C6)cc4)cc3C2=O)CC1 [NAN-190-3-NB590] | 1.27 | 1.04 | 
CC(C)N(CC[C@H](c1ccccc1)c1cc(CCNC(=O)CCOCCOCCOCCOCCNC(=O)CCc2ccc3n2[B-](F)(F)[N+]2=C(c4ccc[nH]4)C=CC2=C3)ccc1O)C(C)C [Tolterodine-2-NB590] | 0.97 | 1.17 | 
CN(C)CCC=C1c2ccccc2CCc2ccc(C(=O)NCCNC(=O)CCOCCOCCOCCOCCNC(=O)CCc3ccc4n3[B-](F)(F)[N+]3=C(c5ccc[nH]5)C=CC3=C4)cc21 [Amitriptyline-b-2-NB590] |  |  | NanoBRET Fold Response (tracer at 0.1μM, listed as amitriptyline-b-2-NB590): 1.05; NanoBRET Fold Response (tracer at 1μM, listed as amitriptyline-b-2-NB590): 1.19
O=C(CCOCCOCCOCCOCCNC(=O)CCc1ccc2n1[B-](F)(F)[N+]1=C(c3ccc[nH]3)C=CC1=C2)NCCCN1CCN(C2=Nc3ccccc3Oc3ccc(Cl)cc32)CC1 [Loxapine-a-2-NB590] | 1.04 | 1.04 | 
CN(C)CCC=C1c2ccccc2CCc2ccc(C(=O)NCCNC(=O)CCOCCOCCOCCOCCNC(=O)CCc3ccc4n3[B-](F)(F)[N+]3=C(c5ccc[nH]5)C=CC3=C4)cc21 [Amitriptyline-a-2-NB590] |  |  | NanoBRET Fold Response (tracer at 0.1μM): 1.02; NanoBRET Fold Response (tracer at 1μM): 1.00
O=C(CCc1ccc2n1[B-](F)(F)[N+]1=C(c3ccc[nH]3)C=CC1=C2)NCCOCCOCCNC(=O)OCCOCCN1CCN(C2=Nc3ccccc3Sc3ccccc32)CC1 [Quetiapine-a-2-NB590] | 0.94 | 1.01 | 
COc1ccccc1N1CCN(CCCCN2C(=O)c3ccc(CNC(=O)CCOCCOCCOCCOCCNC(=O)CCc4ccc5n4[B-](F)(F)[N+]4=C(c6ccc[nH]6)C=CC4=C5)cc3C2=O)CC1 [NAN-190-2-NB590] | 1.00 | 0.97 | 
CN1CCN(C2=Nc3cc(Cl)ccc3N(CC(=O)NCCOCCOCCOCCOCCNC(=O)CCc3ccc4n3[B-](F)(F)[N+]3=C(c5ccc[nH]5)C=CC3=C4)c3ccccc32)CC1 [Clozapine-c-2-NB590] |  |  | NanoBRET Fold Response (CCR10, 0.1μM tracer): 1.00; NanoBRET Fold Response (CCR10, 1μM tracer): 0.91
COc1ccc2[nH]c(-c3ccc(CNC(=O)CCOCCOCCOCCOCCNC(=O)CCc4ccc5n4[B-](F)(F)[N+]4=C(c6ccc[nH]6)C=CC4=C5)cc3)c(CCNC(C)=O)c2n1 [AzomelatoninICO9-2-NB590] |  |  | NanoBRET Fold Response (0.1μM tracer): 0.87; NanoBRET Fold Response (1μM tracer): 1.18
O=C(CCOCCOCCOCCOCCNC(=O)CCc1ccc2n1[B-](F)(F)[N+]1=C(c3ccc[nH]3)C=CC1=C2)NCCCN1CCN(C2=Nc3cc(Cl)ccc3Nc3ccccc32)CC1 [Clozapine-a-2-NB590] |  |  | NanoBRET Fold Response (CCR10, 0.1μM tracer): 1.04; NanoBRET Fold Response (CCR10, 1μM tracer): 1.01
CCCn1c(=O)c2[nH]c(-c3ccc(OCC(=O)NCCNC(=O)CCOCCNC(=O)c4ccc(CNC(=O)CCc5ccc6n5[B-](F)(F)[N+]5=C(c7ccc[nH]7)C=CC5=C6)cc4)cc3)nc2n(CCC)c1=O [XAC-3-NB590] | 0.78 | 0.92 | 
O=C(CCc1ccc2n1[B-](F)(F)[N+]1=C(c3ccc[nH]3)C=CC1=C2)NCc1ccc(C(=O)NCCOCCOCCNCC(O)COc2cccc3ccccc23)cc1 (stereo not shown) [Propranolol-3-NB590] |  |  | NanoBRET Fold Response (CCR10, 0.1μM): 1.04; NanoBRET Fold Response (CCR10, 1μM): 1.00
O=C(CCc1ccc2n1[B-](F)(F)[N+]1=C(c3ccc[nH]3)C=CC1=C2)NCc1ccc(C(=O)NCCOCCC(=O)N[C@@H]2CC[C@@]3(O)[C@H]4Cc5ccc(O)c6c5[C@@]3(CCN4CC3CC3)[C@H]2O6)cc1 [Naltrexone-3-NB590] | 0.92 | 1.02 | 
CN(CCC=C1c2ccccc2CCc2ccccc21)C(=O)CCOCCOCCOCCOCCNC(=O)CCc1ccc2n1[B-](F)(F)[N+]1=C(c3ccc[nH]3)C=CC1=C2 [Amitriptyline-e-2-NB590] |  |  | NanoBRET Fold Response (tracer at 1μM): 1.04
N#CN=C(NCCCOc1cccc(CN2CCCCC2)c1)NCCNC(=O)CCOCCOCCOCCOCCNC(=O)CCc1ccc2n1[B-](F)(F)[N+]1=C(c3ccc[nH]3)C=CC1=C2 [Aminopotentidine-2-NB590] | 1.01 | 1.00 | 
COc1ccc2c(n1)c(CCNC(C)=O)cn2CCNC(=O)CCc1ccc2n1[B-](F)(F)[N+]1=C(c3ccc[nH]3)C=CC1=C2 [Azamelatonin-1-NB590] |  |  | NanoBRET Fold Response (0.1μM tracer): 0.84; NanoBRET Fold Response (1μM tracer): 0.85
CC(C)N(CC[C@H](c1ccccc1)c1cc(CCNC(=O)c2ccc(CNC(=O)CCc3ccc4n3[B-](F)(F)[N+]3=C(c5ccc[nH]5)C=CC3=C4)cc2)ccc1O)C(C)C [Tolterodine-BZ-NB590] | 1.08 | 1.00 | 
CN1CCN(C2=Nc3cc(Cl)ccc3Nc3ccc(CNC(=O)CCOCCOCCOCCOCCNC(=O)CCc4ccc5n4[B-](F)(F)[N+]4=C(c6ccc[nH]6)C=CC4=C5)cc32)CC1 [Clozapine-b-2-NB590] |  |  | NanoBRET Fold Response (CCR10, 0.1μM tracer): 1.01; NanoBRET Fold Response (CCR10, 1μM tracer): 1.15
